Assay results published in patent US20190159450A1, “PYRIDINE-BASED COMPOUND INCLUDING ISOXAZOLINE RING AND USE THEREOF AS HERBICIDE” (MOGHU RESEARCH CENTER LTD., priority 2016, published 2019).

What was measured:
Type in all cases: in vivo
maize [1] = test: Herbicidal activity test, pre-weeds emergence treatment (crop damage); settings: assessed 2 to 3 weeks after spraying, scale 0-10 (0: no effect, 10: complete death)
Summary of the method: (§1)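 Compounds are applied pre-emergence at 200 g/ha to freshly sown soil one day after sowing. Damage is scored on a 0–10 scale 2–3 weeks later under greenhouse conditions.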

rice [2] = test: as above; settings: assessed 2 to 3 weeks after spraying, scale 0-10 (0: no effect, 10: complete death)
Summary of the method: as §1

wheat [3] = test: as above; settings: assessed 2 to 3 weeks after spraying, scale 0-10 (0: no effect, 10: complete death)
Summary of the method: as §1

[4] = tested on: Abutilon theophrasti Medicus; test: Herbicidal activity test, pre-weeds emergence treatment; settings: assessed 2 to 3 weeks after spraying, scale 0-10 (0: no effect, 10: complete death)
Summary of the method: as §1

Xanthium strumarium [5] = test: as above; settings: assessed 2 to 3 weeks after spraying, scale 0-10 (0: no effect, 10: complete death)
Summary of the method: as §1

Quamoclit pennata [6] = test: as above; settings: assessed 2 to 3 weeks after spraying, scale 0-10 (0: no effect, 10: complete death)
Summary of the method: as §1

Aeschynomene indica [7] = test: as above; settings: assessed 2 to 3 weeks after spraying, scale 0-10 (0: no effect, 10: complete death)
Summary of the method: as §1

[8] = tested on: Abutilon theophrasti Medicus; test: Herbicidal activity test, post-weeds emergence treatment; settings: assessed after 2 to 3 weeks, 0: no effect, 10: complete death
Summary of the method: (§2)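 Crops and weeds were grown in 1:1 sandy loam/mixed soil to roughly third-leaf stage (about 2 weeks), then track-sprayed at 1000 L/ha with compound in acetone plus an equal volume of 0.1% Tween 20 at 200 g/ha (one weed test used 50 g/ha). Injury was scored 0–10 after 2–3 weeks.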

Xanthium strumarium [9] = test: as above; settings: assessed after 2 to 3 weeks, 0: no effect, 10: complete death
Summary of the method: as §2

Quamoclit pennata [10] = test: as above; settings: assessed after 2 to 3 weeks, 0: no effect, 10: complete death
Summary of the method: as §2

Aeschynomene indica [11] = test: as above; settings: assessed after 2 to 3 weeks, 0: no effect, 10: complete death
Summary of the method: as §2

maize [12] = test: Herbicidal activity test, post-weeds emergence treatment (crop damage); settings: assessed after 2 to 3 weeks, 0: no effect, 10: complete death
Summary of the method: (§3)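 Weeds and crops grown in sandy loam/mixed soil pots to about third-leaf stage (~2 weeks), then track-sprayed at 1000 L/ha with compound in acetone/0.1% Tween 20; dose 200 g/ha on crops, 50 g/ha on weeds. Greenhouse 25-30 °C day, 15-25 °C night; injury scored 0-10 (10 = complete death) after 2-3 weeks.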

rice [13] = test: as above; settings: assessed after 2 to 3 weeks, 0: no effect, 10: complete death
Summary of the method: as §3

wheat [14] = test: as above; settings: assessed after 2 to 3 weeks, 0: no effect, 10: complete death
Summary of the method: as §3

[15] = spray amount 50 g/ha for weeds, Table 6
[16] = spray amount 200 g/ha for crops, Table 6

SMILES | PRE ZEAMX (maize), damage score (maize [1]; Table 4, 200 g/ha) | PRE ORYSA (rice), damage score (rice [2]; Table 4, 200 g/ha) | PRE TRZAW (wheat), damage score (wheat [3]; Table 4, 200 g/ha) | PRE ABUTH (Abutilon theophrasti Medicus), efficacy score ([4]; Table 4, 200 g/ha) | PRE XANST (Xanthium strumarium), efficacy score (Xanthium strumarium [5]; Table 4, 200 g/ha) | PRE IPOAN (Quamoclit pennata), efficacy score (Quamoclit pennata [6]; Table 4, 200 g/ha) | PRE AESIN (Aeschynomene indica), efficacy score (Aeschynomene indica [7]; Table 4, 200 g/ha) | ABUTH (Abutilon theophrasti Medicus) herbicidal efficacy, scale of 0-10 [8, 15] | XANST (Xanthium strumarium) herbicidal efficacy, scale of 0-10 (Xanthium strumarium [9]; [15]) | IPOAN (Quamoclit pennata) herbicidal efficacy, scale of 0-10 (Quamoclit pennata [10]; [15]) | AESIN (Aeschynomene indica) herbicidal efficacy, scale of 0-10 (Aeschynomene indica [11]; [15]) | ZEAMX (maize) damage, scale of 0-10 (maize [12]; [16]) | ORYSA (rice) damage, scale of 0-10 (rice [13]; [16]) | TRZAW (wheat) damage, scale of 0-10 (wheat [14]; [16]) | also measured
Nc1cc(C2CC(Br)=NO2)nc(C(=O)O)c1Cl (stereo not drawn) [Compound 34, 4-amino-3-chloro-6-(3-bromo-4,5-dihydroisoxazol-5-yl)picolinic acid] | 0 | 0 | 0 | 9 | 10 | 10 | 10 | 6 | 10 | 3 | 10 | 0 | 2 | 0 | –
Nc1cc(C2CC(Br)=NO2)nc(C(=O)OCc2ccccc2)c1Cl (stereo not drawn) [Compound 86, benzyl 4-amino-3-chloro-6-(3-bromo-4,5-dihydroisoxazol-5-yl)picolinate] | 0 | 0 | 0 | 3 | 2 | 3 | 6 | 4 | 8 | 5 | 2 | 0 | 3 | 0 | –
Nc1cc(C2CC(Br)=NO2)nc(C(=O)OCc2ccc(C(F)(F)F)cc2)c1Cl (stereo not drawn) [Compound 88, 4-trifluoromethylbenzyl 4-amino-6-(3-bromo-4,5-dihydroisoxazol-5-yl)-3-chloropicolinate] | 0 | 0 | 0 | 5 | 9 | 3 | 10 | 5 | 10 | 6 | 8 | 0 | 0 | 0 | –
CC1(c2cc(N)c(Cl)c(C(=O)O)n2)CC(Br)=NO1 (stereo not drawn) [Compound 54, 4-amino-3-chloro-6-(3-bromo-5-methyl-4,5-dihydroisoxazol-5-yl)picolinic acid] | 0 | 0 | 0 | 10 | 8 | 5 | 10 | 4 | 8 | 5 | 6 | 0 | 0 | 0 | –
COC(=O)c1nc(C2CC(Cl)=NO2)cc(NC(C)=O)c1Cl (stereo not drawn) [Compound 1, methyl 4-acetamido-3-chloro-6-(3-chloro-4,5-dihydroisoxazol-5-yl)picolinate] | – | – | – | – | – | – | – | – | – | – | – | – | – | – | PRE ZEAMX (maize), damage score (maize [1]; Table 3, 200 g/ha): 0; PRE ORYSA (rice), damage score (rice [2]; Table 3, 200 g/ha): 0; PRE TRZAW (wheat), damage score (wheat [3]; Table 3, 200 g/ha): 1; PRE ABUTH (Abutilon theophrasti Medicus), efficacy score ([4]; Table 3, 200 g/ha): 8; PRE XANST (Xanthium strumarium), efficacy score (Xanthium strumarium [5]; Table 3, 200 g/ha): 9; PRE IPOAN (Quamoclit pennata), efficacy score (Quamoclit pennata [6]; Table 3, 200 g/ha): 9; PRE AESIN (Aeschynomene indica), efficacy score (Aeschynomene indica [7]; Table 3, 200 g/ha): 10; ABUTH (Abutilon theophrasti Medicus) herbicidal efficacy, scale of 0-10 ([8]; spray amount 200 g/ha, Table 5): 8; XANST (Xanthium strumarium) herbicidal efficacy, scale of 0-10 (Xanthium strumarium [9]; spray amount 200 g/ha, Table 5): 10; IPOAN (Quamoclit pennata) herbicidal efficacy, scale of 0-10 (Quamoclit pennata [10]; spray amount 200 g/ha, Table 5): 8; AESIN (Aeschynomene indica) herbicidal efficacy, scale of 0-10 (Aeschynomene indica [11]; spray amount 200 g/ha, Table 5): 10; ZEAMX (maize) damage, scale of 0-10 (maize [12]; spray amount 200 g/ha, Table 5): 0; ORYSA (rice) damage, scale of 0-10 (rice [13]; spray amount 200 g/ha, Table 5): 1; TRZAW (wheat) damage, scale of 0-10 (wheat [14]; spray amount 200 g/ha, Table 5): 1
CC(C)OC(=O)c1nc(C2CC(Br)=NO2)cc(N)c1Cl (stereo not drawn) [Compound 83, isopropyl 4-amino-6-(3-bromo-4,5-dihydroisoxazol-5-yl)-3-chloropicolinate] | 0 | 0 | 0 | 0 | 2 | 5 | 5 | 4 | 7 | 5 | 5 | 0 | 0 | 0 | –
